From patent US7825270B2, “Inositolphospholipids and analogues: phosphatidylinositol products and processes” (Nutrimed Biotech, priority 2005, dated 2010)

How the values were obtained:
[1] = solubility in organic solvents; assay type: physicochemical; details: alcohol, acetone, ethyl acetate or methanol
[2] = tested on: epithelial cell proliferation; details: cited from earlier work
[3] = tested on: HDL-C levels; details: administration of PI, humans; cited from earlier work

In the case of “Soy PI-2,3,4,5,6-penta-O-tetrahydropyranyl ether”, the solubility in solvents [1] is reported as “dissolved easily”.

In the case of “D-myo-inositol 4-(hexadecyloxy)-3(S)methoxy-butane-phosphonate”, the “inhibition of epithelial cell proliferation” value [2] is given as “inhibit epithelial cell proliferation”.

In the case of phosphatidylinositol [PI], the “effect on HDL-C levels” value [3] is given as “raises HDL-C levels”.
